Test results reported in ChEMBL document CHEMBL5052842, “Pharmaceutical compounds and their use as inhibitors of ubiquitin specific protease 19 (usp19)” (2020).
pIC50: −log10 of the molar value.

Biological target: T1, Ubiquitin carboxyl-terminal hydrolase 19 (Homo sapiens, UniProt O94966)
T1 sequence (O94966 whole entry): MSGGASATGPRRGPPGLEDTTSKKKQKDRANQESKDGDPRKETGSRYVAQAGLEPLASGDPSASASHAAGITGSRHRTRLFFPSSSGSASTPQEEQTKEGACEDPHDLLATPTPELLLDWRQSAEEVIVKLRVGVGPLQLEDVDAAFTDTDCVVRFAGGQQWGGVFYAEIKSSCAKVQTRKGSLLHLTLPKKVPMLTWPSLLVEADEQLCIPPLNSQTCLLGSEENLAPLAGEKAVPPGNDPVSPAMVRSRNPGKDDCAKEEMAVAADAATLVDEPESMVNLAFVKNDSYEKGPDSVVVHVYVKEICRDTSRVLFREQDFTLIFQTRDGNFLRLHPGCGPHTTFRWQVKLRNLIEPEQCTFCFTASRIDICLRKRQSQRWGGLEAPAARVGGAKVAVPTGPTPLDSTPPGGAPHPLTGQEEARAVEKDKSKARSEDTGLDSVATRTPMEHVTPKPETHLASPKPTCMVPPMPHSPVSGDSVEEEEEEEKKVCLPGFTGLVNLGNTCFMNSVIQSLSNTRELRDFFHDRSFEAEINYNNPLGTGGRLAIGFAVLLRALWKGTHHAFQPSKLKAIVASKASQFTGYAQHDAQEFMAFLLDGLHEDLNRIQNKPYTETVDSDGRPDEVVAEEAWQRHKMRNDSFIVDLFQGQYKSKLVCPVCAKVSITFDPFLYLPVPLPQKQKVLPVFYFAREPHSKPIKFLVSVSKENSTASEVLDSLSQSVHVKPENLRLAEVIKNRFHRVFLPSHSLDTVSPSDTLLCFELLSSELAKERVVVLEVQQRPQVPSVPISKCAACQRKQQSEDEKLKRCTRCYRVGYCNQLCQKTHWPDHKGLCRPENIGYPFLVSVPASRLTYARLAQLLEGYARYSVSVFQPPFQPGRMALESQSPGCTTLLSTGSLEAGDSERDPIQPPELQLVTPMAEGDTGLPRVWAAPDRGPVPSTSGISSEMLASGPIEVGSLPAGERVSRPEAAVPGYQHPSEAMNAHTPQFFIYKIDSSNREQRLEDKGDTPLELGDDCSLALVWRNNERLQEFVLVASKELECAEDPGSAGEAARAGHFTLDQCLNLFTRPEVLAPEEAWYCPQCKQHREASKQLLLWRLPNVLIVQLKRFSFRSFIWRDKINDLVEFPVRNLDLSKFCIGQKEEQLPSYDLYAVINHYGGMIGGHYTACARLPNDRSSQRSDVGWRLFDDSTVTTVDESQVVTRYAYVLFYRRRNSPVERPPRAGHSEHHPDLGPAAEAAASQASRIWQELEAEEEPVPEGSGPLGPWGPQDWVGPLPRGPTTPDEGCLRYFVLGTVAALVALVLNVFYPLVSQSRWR
Assay: Inhibition of C-terminal His6-tagged recombinant human USP19 using iso-peptide ubiquitin-Lys-TAMRA as substrate incubated for 30 mins and measured after 90 mins by fluorescent polarization assay

Compound	pIC50
O=C(N1CC[C@@](O)(Cn2ccc(C3CC3)cc2=O)C2(CCCC2)C1)N1CCNC[C@H]1c1ccccc1	> 6.30
O=C(N1CCC(O)(Cn2cc(F)c(-c3ccccc3)cc2=O)C2(CCCC2)C1)N1CCNC[C@H]1c1ccccc1 (stereo not given in full)	> 6.30
Cn1cc(-c2ccn(C[C@]3(O)CCN(C(=O)N4CCNC[C@H]4c4ccccc4)CC34CCCC4)c(=O)c2)cn1	> 6.30
O=C(N1CCC(O)(Cn2cnc(-c3ccccc3)cc2=O)C2(CCOCC2)C1)N1CCOC[C@H]1c1ccccc1 (stereo not given in full)	> 6.30
COc1cccc(-c2cc(=O)n(C[C@]3(O)CCN(C(=O)N4CCNC[C@H]4c4ccccc4)CC34CCCC4)cn2)c1	> 6.30
COc1ccc(-c2cc(=O)n(C[C@]3(O)CCN(C(=O)N4CCNC[C@H]4c4ccccc4)CC34CCCC4)cn2)s1	> 6.30
CC1(C)CN(C(=O)N2CCOC[C@H]2c2ccccc2)CC[C@@]1(O)Cn1cnc(-c2ccccc2)cc1=O	> 6.30
O=C(N1CC[C@@](O)(Cn2cnc(N3CCC(F)CC3)cc2=O)C2(CCCC2)C1)N1CCNC[C@H]1c1ccccc1	> 6.30
O=C(N1CC[C@@](O)(Cn2ccc(N3CCCC3)cc2=O)C2(CCCC2)C1)N1CCNC[C@H]1c1ccccc1	> 6.30
O=C(N1CC[C@@](O)(Cn2cnc(-c3ccccc3F)cc2=O)C2(CCCC2)C1)N1CCNC[C@H]1c1cccc(F)c1	> 6.30
O=C(N1CC[C@@](O)(Cn2cnc(N3CC4CC4C3)cc2=O)C2(CCCC2)C1)N1CCNC[C@H]1c1ccccc1 (stereo not given in full)	> 6.30
Cn1nc(C(F)(F)F)cc1-c1cc(=O)n(C[C@]2(O)CCN(C(=O)N3CCNC[C@H]3c3ccccc3)CC23CCCC3)cn1	> 6.30
O=C(N1CC[C@@](O)(Cn2cnc(-c3ccsc3)cc2=O)C2(CCCC2)C1)N1CCNC[C@H]1c1ccccc1	> 6.30
O=C(N[C@H](c1ccccc1)C(F)(F)F)N1CC[C@@](O)(Cn2ccc(-c3ccccc3)cc2=O)C2(CCCC2)C1	> 6.30
O=C(N1CC[C@@](O)(Cn2cnc(-c3ccccc3C(F)F)cc2=O)C2(CCCC2)C1)N1CCNC[C@H]1c1ccccc1	> 6.30
N=S1(=O)CCN(C(=O)N2CC[C@@](O)(Cn3cnc(-c4ccccc4)cc3=O)C3(CCCC3)C2)C(c2ccccc2)C1 (stereo not given in full)	> 6.30
O=C(N1CC[C@@](O)(Cn2cnc(-c3ccccc3)cc2=O)C2(CCCC2)C1)N1CCNC[C@H]1c1cccc(F)c1F	> 6.30
O=C(N1CC[C@@](O)(Cn2cnc(-c3ccccc3)cc2=O)C2(CCCC2)C1)N1CCNC[C@H]1c1ccc(F)cc1	> 6.30
CNc1cc(=O)n(C[C@]2(O)CCN(C(=O)N3CCNC[C@H]3c3ccccc3)CC23CCCC3)cn1	> 6.30
O=C(N1CC[C@@](O)(Cn2cnc(-c3ccc(F)cc3)cc2=O)C2(CCCC2)C1)N1CCNC[C@H]1c1ccccc1	> 6.30

Compound	pIC50
O=C(N1CC[C@@](O)(Cn2cnc(-c3ccc4c(c3)CCO4)cc2=O)C2(CCCC2)C1)N1CCNC[C@H]1c1ccccc1	> 6.30
O=C(N1CC[C@@](O)(Cn2cnc(-c3ccccc3F)cc2=O)C2(CCCC2)C1)N1CCNC[C@H]1c1ccccc1	> 6.30
COc1ccccc1-c1cc(=O)n(C[C@]2(O)CCN(C(=O)N3CCNC[C@H]3c3cccc(F)c3)CC23CCCC3)cn1	> 6.30
O=C(N1CC[C@@](O)(Cn2cnc(N3CCC(F)(F)CC3)cc2=O)C2(CCCC2)C1)N1CCNC[C@H]1c1ccccc1	> 6.30
O=C(N1CC[C@@](O)(Cn2cnc(-c3ccccc3)cc2=O)C2(CCCC2)C1)N1CCNCC1c1ccc(C(F)(F)F)cc1 (stereo not given in full)	> 6.30
CC1(C)CN(C(=O)N2CCNC[C@H]2c2ccccc2)CC[C@@]1(O)Cn1cnc(-c2ccccc2)cc1=O	> 6.30
COc1ccccc1-c1cc(=O)n(C[C@]2(O)CCN(C(=O)N3CCNC[C@H]3c3ccccc3)CC23CCCC3)cn1	> 6.30
O=C(N1CC[C@@](O)(Cn2cnc(-c3ccccc3C(F)(F)F)cc2=O)C2(CCCC2)C1)N1CCNC[C@H]1c1ccccc1	> 6.30
O=C(N1CC[C@@](O)(Cn2cnc(-c3ccccc3)cc2=O)C2(CCCC2)C1)N1CCS(=O)(=O)CC1c1ccccc1 (stereo not given in full)	> 6.30
O=C(N1CC[C@@](O)(Cn2cnc(-c3ccc(OC4CC4)cc3)cc2=O)C2(CCCC2)C1)N1CCNC[C@H]1c1ccccc1	> 6.30
O=C(N1CC[C@@](O)(Cn2cnc(-c3ccccc3)cc2=O)C2(CCCC2)C1)N1CCNCC1c1ccsc1 (stereo not given in full)	> 6.30
O=C(N1CC[C@@](O)(Cn2cnc(N3CCCC(F)(F)C3)cc2=O)C2(CCCC2)C1)N1CCNC[C@H]1c1ccccc1	> 6.30
O=C(N1CC[C@@](O)(Cn2cnc(N3CCCCC3)cc2=O)C2(CCCC2)C1)N1CCNC[C@H]1c1ccccc1	> 6.30
O=C(N1CC[C@@](O)(Cn2cnc(-c3ccccc3)cc2=O)C2(CCCC2)C1)N1CCNCC1c1ccccc1F (stereo not given in full)	> 6.30
Cn1nccc1-c1ccn(C[C@]2(O)CCN(C(=O)N3CCNC[C@H]3c3ccccc3)CC23CCCC3)c(=O)c1	> 6.30
Cc1ccc(-c2cc(=O)n(C[C@]3(O)CCN(C(=O)N4CCNC[C@H]4c4ccccc4)CC34CCCC4)cn2)cc1	> 6.30
O=C(N1CCC(O)(Cn2cnc(-c3ccccc3)cc2=O)C2(CCC2)C1)N1CCNC[C@H]1c1ccccc1 (stereo not given in full)	> 6.30
O=C(N1CC[C@@](O)(Cn2cnc(-c3ccc4c(c3)OCC4)cc2=O)C2(CCCC2)C1)N1CCNC[C@H]1c1ccccc1	> 6.30
CN(C)c1ccc(-c2cc(=O)n(C[C@]3(O)CCN(C(=O)N4CCNC[C@H]4c4ccccc4)CC34CCCC4)cn2)cc1	> 6.30
Cc1cccc(-c2cc(=O)n(C[C@]3(O)CCN(C(=O)N4CCNC[C@H]4c4ccccc4)CC34CCCC4)cn2)c1	> 6.30

Compound	pIC50
O=C(N1CC[C@@](O)(Cn2cnc(-c3ccccc3)cc2=O)C2(CCCC2)C1)N1CCSCC1c1ccccc1 (stereo not given in full)	> 6.30
O=C(N1CC[C@@](O)(Cn2cnc(-c3ccccc3)cc2=O)C2(CCCC2)C1)N1CCN(CC(F)(F)F)C[C@H]1c1ccccc1	> 6.30
O=C(N1CC[C@@](O)(Cn2cnc(-c3ccccc3)cc2=O)C2(CCCC2)C1)N1CCNC[C@H]1c1ccc(F)cc1F	> 6.30
O=C(N1CC[C@@](O)(Cn2cnc(-c3ccccc3)cc2=O)C2(CCOCC2)C1)N1CCNC[C@H]1c1ccccc1	> 6.30
O=C(N1CC[C@@](O)(Cn2cnc(-c3ccccc3OC(F)F)cc2=O)C2(CCCC2)C1)N1CCNC[C@H]1c1ccccc1	> 6.30
O=C(N1CC[C@@](O)(Cn2cnc(-c3ccccc3)cc2=O)C2(CCCC2)C1)N1CCNC[C@H]1c1cccc(F)c1	> 6.30
O=C(N1CC[C@@](O)(Cn2cnc(-c3cccs3)cc2=O)C2(CCCC2)C1)N1CCNC[C@H]1c1ccccc1	> 6.30
O=C(N1CC[C@@](O)(Cn2cnc(-c3ccc(Cl)cc3)cc2=O)C2(CCCC2)C1)N1CCNC[C@H]1c1ccccc1	> 6.30
O=C(N1CC[C@@](O)(Cn2cnc(-c3ccccc3OC(F)(F)F)cc2=O)C2(CCCC2)C1)N1CCNC[C@H]1c1ccccc1	> 6.30
O=C(N1CC[C@@](O)(Cn2cnc(-c3ccccc3OC3CC3)cc2=O)C2(CCCC2)C1)N1CCNC[C@H]1c1ccccc1	> 6.30
O=C(N1CC[C@@](O)(Cn2cnc(-c3ccccc3)cc2=O)C2(CCCC2)C1)N1CCNCC1c1cccs1 (stereo not given in full)	> 6.30
Cc1ccccc1-c1cc(=O)n(C[C@]2(O)CCN(C(=O)N3CCNC[C@H]3c3ccccc3)CC23CCCC3)cn1	> 6.30
O=C(N1CC[C@@](O)(Cn2cnc(N3CCC(F)(F)C3)cc2=O)C2(CCCC2)C1)N1CCNC[C@H]1c1ccccc1	> 6.30
O=C(N1CC[C@@](O)(Cn2cnc(-c3cccc(F)c3)cc2=O)C2(CCCC2)C1)N1CCNC[C@H]1c1ccccc1	> 6.30
O=C(N1CC[C@@](O)(Cn2cnc(N3CC(F)(F)C3)cc2=O)C2(CCCC2)C1)N1CCNC[C@H]1c1ccccc1	> 6.30
O=C(N1CC[C@@](O)(Cn2ccc(Cl)cc2=O)C2(CCCC2)C1)N1CCNC[C@H]1c1ccccc1	> 6.30
COc1cc(=O)n(C[C@]2(O)CCN(C(=O)N3CCNC[C@H]3c3ccccc3)CC23CCCC3)cn1	> 6.30
O=C(NCC1CC(F)(F)C1)N1CC[C@@](O)(Cn2cnc(-c3ccccc3)cc2=O)C2(CCCC2)C1	> 6.30
O=C(N1CC[C@@](O)(Cn2cnc(-c3ccc4c(c3)COC4)cc2=O)C2(CCCC2)C1)N1CCNC[C@H]1c1ccccc1	> 6.30
COc1ccc(-c2cc(=O)n(C[C@]3(O)CCN(C(=O)N4CCNC[C@H]4c4ccccc4)CC34CCCC4)cn2)cc1	> 6.30
